Reference: paper PMC9229949 (Pharmaceutics, 2022)
Like-named read-outs stand apart in the source and are kept apart here.

What was measured:
[1] = molecular target: T1, S. mansoni thioredoxin-glutathione reductase (SmTGR) (Schistosoma mansoni, UniProt Q962Y6); assay: Inhibition of enzymatic activity of recombinant S. mansoni thioredoxin glutathione reductase; format: biochemical; settings: 15 min preincubation, mean of one experiment, read-out: IC50 for TrxRs, S. mansoni (Sec)
T1 construct: made in house
T1 sequence (Q962Y6 1-598): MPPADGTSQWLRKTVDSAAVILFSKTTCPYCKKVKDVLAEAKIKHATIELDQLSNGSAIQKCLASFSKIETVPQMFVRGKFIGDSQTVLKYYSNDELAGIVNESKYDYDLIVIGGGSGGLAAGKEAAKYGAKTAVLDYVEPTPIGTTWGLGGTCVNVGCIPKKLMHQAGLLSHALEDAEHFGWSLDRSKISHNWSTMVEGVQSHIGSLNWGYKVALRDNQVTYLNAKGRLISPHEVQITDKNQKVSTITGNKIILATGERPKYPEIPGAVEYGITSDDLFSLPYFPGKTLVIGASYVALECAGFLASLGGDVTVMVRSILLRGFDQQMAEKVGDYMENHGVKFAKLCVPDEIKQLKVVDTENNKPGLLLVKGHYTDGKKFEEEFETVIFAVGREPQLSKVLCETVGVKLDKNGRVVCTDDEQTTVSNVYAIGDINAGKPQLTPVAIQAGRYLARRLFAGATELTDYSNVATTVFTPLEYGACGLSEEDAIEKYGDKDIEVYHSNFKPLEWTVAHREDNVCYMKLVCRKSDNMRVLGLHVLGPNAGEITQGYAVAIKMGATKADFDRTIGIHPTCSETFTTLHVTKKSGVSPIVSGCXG
Description: The codon-optimized sequence for PfTrxR [27, 28] was synthesized and subcloned into pET-15b (Genscript) and expressed and purified as for human glutathione reductase (hGR). Recombinant Schistosoma mansoni (S. mansoni) thioredoxin glutathione reductase (SmTGR), human TrxR (hTrxR), and hGR proteins were expressed and purified as described. TrxR and TGR enzyme inhibition assays were performed in triplicate at 25 °C in 0.1 M potassium phosphate (pH 7.4), 10 mM EDTA, 100 µM NADPH and 0.01% Tween-20. SmTGR (4 nM), hTrxR (4 nM), and PfTrxR (50 nM) were preincubated with the compounds for 15 min. The reaction was started with addition of an equal volume of 5,5′-dithiobis(2-nitrobenzoic acid) (6 mM) and NADPH (100 µM). The increase in A412 during the first 3 min was recorded. […]. The reactions were performed in triplicate. The IC50s were calculated in Prism version 5.01.

[2] = tested on: 3D7 P. falciparum gametocytes stages I/III; assay: P. falciparum young gametocytes (stages I/III), luciferase viability; format: cell-based; settings: Plasmodium falciparum; 3D7 strain, 72 h; mean ± S.D. of one experiment; read-out: IC50, gametocytes of P. falciparum, Stages I/III
Description: The activity of compounds was assessed against young gametocytes (stages I/III) and against mature gametocytes (stage V). […] A volume of 100 μL of 3D7elo1-pfs16-CBG99 gametocytes of 3D7 P. falciparum at 0.5–1% parasitemia and 2% hematocrit were dispensed. […] Luciferase activity was used to determine gametocytes viability. A volume of 100 µL of culture medium was removed from each well to increase hematocrit; 70 µL of resuspended culture was transferred to a black 96-well plate; 70 µL of D-luciferin (1 mM in citrate buffer 0.1 M, pH 5.5) was added. Luminescence measurements were performed after 10 min with 500 ms integration time. The IC50 was extrapolated from nonlinear regression analysis of the concentration–response curve.

[3] = tested on: β-hematin formation; assay: β-hematin formation inhibition by infrared spectroscopy; format: biochemical; parameters: key: Yes indicates β-hematin inhibition; No indicates β-hematin formation; settings: 3:1 ratio of drug:hematin, qualitative by infrared
Description: The conversion of hemin to β-hematin was determined by infrared (IR) spectroscopy as described by Egan et al.. […] Then, 0.3 mL of 0.1 M HCl and 1.7 mL of sodium acetate buffer ([…], pH 5) were added at the same temperature. […] The solid was dried and IR spectra were obtained using attenuated total reflection (ATR) using chloroquine as a positive control.

[4] = tested on: β-hematin formation from Fe(II)PPIX (heme); assay: β-hematin inhibition activity, reducing conditions (R-BHIA, heme); format: biochemical; settings: 18 h incubation; median ± S.E.M. of three experiments; free bases; read-out: β-Hematin Inhibitory Activity (BHIA) R-BHIA (Heme), IC50
Description: (§1) A hemin chloride (10 μL of 4 mM stock in 80% DMSO) aliquot was dispensed in a U bottom 96-well microplate, and then, 10 μL of 0.1 M NaOH (O-BHIA) or 4 mM reduced glutathione in PBS at pH 7.0 (R-BHIA) was added, and plates were sealed and incubated at 37 °C for 2 h. After this, 10 μL of the drug dissolved in DMSO was added and incubated for 2 h, followed by the addition of 180 μL of sodium acetate buffer (1.0 M, pH 5.2) and 10 μL of nonionic detergent IGEPAL-CA-630 solution in methanol (10 mg/mL). Plates were sealed and incubated at 37 °C for 18 h. […] The reaction was stopped by the addition of 50 μL of a sodium dodecyl sulfate solution (5.0% v/v in 0.1 M bicarbonate buffer at pH 9.0). Plates were centrifuged at 3700 rpm for 5 min, and 100 μL of supernatant was placed in a separate plate. […] Two independent experiments were performed, and each drug concentration was tested in quadruplicate concentrations.

[5] = tested on: β-hematin formation from Fe(III)PPIX (hematin); assay: β-hematin inhibition activity, oxidizing conditions (O-BHIA, hematin); format: biochemical; settings: 18 h incubation; median ± S.E.M. of three experiments; free bases; read-out: β-Hematin Inhibitory Activity (BHIA) O-BHIA (Hematin), IC50
Description: as §1

[6] = tested on: P. falciparum 3D7 (CQ-susceptible) asexual blood stages; assay: In vitro activity against asexual blood stages of P. falciparum, CQ-susceptible strain 3D7 (HRP2 ELISA); format: cell-based; settings: Plasmodium falciparum, 3D7
Description: The plates were incubated for 72 h at 37 °C in controlled atmosphere. After frozen and thawing the plates, hemolyzed cultures were homogenized by vortexing the plates. The antiparasitic activity was determined using the HRP2 ELISA-based assay Malaria Ag Celisa kit (ref KM2159, Cellabs PTY LDT, Brookvale, Australia). […] IC50s are expressed as means of three to five experiments.

SMILES | IC50 [1] [nM] | IC50 [2] [nM] | β-Hematin Inhibitory Activity (BHIA) Determined by IR [3] | IC50 [4] [nM] | IC50 [5] [nM] | IC50 ([6]; 72 h incubation, HRP2 ELISA, mean ± S.E.M. of at least three experiments, AQ hydrochloride hydrate, PQ diphosphate, CQ diphosphate, read-out: P. falciparum, IC50 ± S.E.M., CQ-Susceptible 3D7) [nM] | IC50 ([6]; in vitro antiplasmodial activity, read-out: P. falciparum 3D7 (Cell Based Activity), IC50) [nM]
[Cl][Au].c1ccc(P(c2ccccc2)c2ccccc2)cc1 [[AuClPPh3]] | 0.5 |  |  |  |  |  | 
CCN(CC)Cc1cc(Nc2ccnc3cc(Cl)ccc23)ccc1O [Amodiaquine (AQ), amodiaquine] | 42000 | 61 ± 20 | Yes | 100000 ± 10000 | 140000 ± 30000 | 18 ± 1.6 | 18 ± 2
